Experimental data as given in patent US4868190A, “N-pyridinyl-9H-carbazol-9-amines” (Hoechst-Roussel Pharmaceuticals, Inc., priority 1988, dated 1989).
Read-outs that look alike come from different tables or passages of the source.

Tests used:
[1] = system: scopolamine induced memory deficit; test: Dark Avoidance Assay (scopolamine-induced memory deficit); type: in vivo; conditions: mice, 24 hours
Protocol: In this assay mice are tested for their ability to remember an unpleasant stimulus for a period of 24 hours. A mouse is placed in a chamber that contains a dark compartment; a strong incandescent light drives it to the dark compartment, where an electric shock is administered through metal plates on the floor. The animal is removed from the testing apparatus and tested again, 24 hours later, for the ability to remember the electric shock. If scopolamine, an anticholinergic that is known to cause memory impairment, is administered before an animal's initial exposure to the test chamber, the animal re-enters the dark compartment shortly after being placed in the test chamber 24 hours later.

[2] = system: 2-phenyl-1,4-benzoquinone-induced writhing; test: 2-phenyl-1,4-benzoquinone-induced writhing (PQW) test in mice; type: in vivo; conditions: Mus musculus, sc, read-out: PQW ED50
From the text: Compounds I of the present invention are useful as analgesic agents due to their ability to alleviate pain in mammals. […] Exptl. Biol. Med., 95, 729 (1957)] and in modified Haffner's analgesia.

[3] = system: sensitivity of mice to pressure stress (artery clip on tail); test: Modified Haffner's analgesia (artery clip on tail); type: in vivo, mice (male, Charles River, CD-1); conditions: Mus musculus, sc, read-out: Modified Haffner's Analgesia ED50
From the text: The latter assay is used to evaluate analgesic activity by measuring drug-induced changes in the sensitivty of mice to pressure stress by placing an artery clip (21/2 inches long) on their tail. The procedure used is a modification of the test developed by Haffner, Dtsch. Med. Wschr. 55, 731 (1929), and it is described below:
Male mice (Charles River, CD-1) from 18-30 grams are used for the test. An artery clip is applied to the root of the tail of a mouse (approximately 1/2 inch from the body) to induce pain. The animals quickly responds to this noxious stimuli by biting the clip or the location of the clip. This reaction time, the interval between stimulus onset and response, is recorded on 1/10 second increments by a stop watch.
For a time response, the screening dose (25 mg/kg) is administered subcutaneously (10 ml/kg) to the animal receiving food and water ad libitum before testing. Animals receiving the compound orally are fasted 18-24 hours before drug administration. Drug to be tested is prepared with distilled water and if insoluble, one drop of a surfactant is added.
Twenty-eight animals (seven/group) are administered the drug 15, 30, 45 and 60 minutes prior to testing.
The cut-off time (CO) is determined by taking the (x) average+3 standard (SD) deviation of the combined response latencies of the control mice in all time periods.
Any reaction time, in subsequent drug tests, which is greater than the CO (for the same time period) therefore exceeds 99% of normal Gaussian distribution and is called "positive response" indicative of analgesic activity. A time response indicates the period of greatest analgesic effect after dosing. The ED50 is determined at the peak time of drug activity. A minimum of three dose groups are used. ED50 's are calcualted using computer analysis.

[4] = system: tetrabenazine-induced ptosis; test: Prevention of Tetrabenazine-Induced Ptosis in Mice; type: in vivo, mice (male); conditions: Mus musculus, po, read-out: Antidepressant activity ED50
From the text: The test method and results are described below.
Tetrabenazine (TBZ) induces behavioral depression with concomitant ptosis in mice similar to reserpine. Antidepressant compounds, both monoamineoxidase inhibitors and tricyclics, are known to prevent or antagonize these effects and the degree of antagonism correlates with clinical efficacy. The prevention of […] ptosis in mice is used as a preliminary screen for possible antidepressant activity. The method used in this invention is as follows:
Male mice weighing 20 to 30 grams are used in test groups of five subjects. All compounds are dissolved or suspended with a suitable surfactant in distilled water and administered in volumes of 10 ml/kg of body weight. TBZ solution is made from the methanesulfonate salt and the concentration is adjusted to enable administration of 60 mg/kg of base by intraperitoneal (i.p.) injection.
The pretreatment time is measured from the time of dosing to observation. Therefore, when a 30-minute pretreat is utilized, drug and TBZ are given simultaneously. A control group received solvent and TBZ at intervals identical to drug group. For a primary screen, the drug is administered i.p. and a group size of five is utilized. Eight animals/group are used for a dose range.
The total score for each group of five in a primary screen will, therefore, be from 0 to 20 and these scores are used as indications of drug activity.
The vehicle control group score is used as a determinant of the validity of each test. […] The calculation of percent inhibition of ptosis is: [formula]

[5] = system: supramaximal electroshock (extensor tonus); test: Anticonvulsant activity, supramaximal electroshock (SES) assay; type: in vivo; conditions: ip; male mouse, at peak activity time
Protocol: Compounds I of the present invention are also useful as anticonvulsant agents due to their anticonvulsant activity in mammals. Anticonvulsant activity is measured in the male mouse using the supramaximal electroshock (SES) assay described in Arch. Int. Pharmacodyn. 92:97-107, 1952. In this procedure groups of animals are used. Drugs are prepared using distilled water and, if insoluble, a surfactant is added. Control animals receive vehicle. Drugs are routinely administered intraperitoneally (i.p.). The dosage volume is 10 ml/kg. A primary screen is given a 30 minute pretreat. The animal's eyes are placed across the output terminals of an A.C. shocker that delivers 206 volts rms for 300 msec. Electrode paste coats the animals eyes at the point of contact with the terminals. […] Protection is expressed as normalized percent inhibition relative to vehicle control.
A time response is carried out using six animals/group. Animals are tested at 30, 60 and 120 minutes postdrug. Additional time periods are tested if indicated by previous tests. When the peak activity time has been determined, a dose response is initiated using 10 animals/group at that time period. The ED50 and 95% confidence interval are calculated by computer probit analysis.

[6] = mice, s.c., at peak time of drug activity

Structure (SMILES): Brc1ccc2c(c1)c1ccccc1n2Nc1ccncc1.O=C(O)/C=C\C(=O)O [3-Bromo-N-(4-pyridinyl)-9H-carbazol-9-amine maleate]
- % of animals with scopolamine induced memory deficit reversal ([1]; dose 0.31 mg/kg body weight): 33%
- ED50 ([2]; mice, s.c.): 1.2 mg/kg
- ED50 [3, 6]: 1.1 mg/kg
- ED50 ([4]; mice, p.o., TBZ 60 mg/kg i.p.): 7.6 mg/kg

Structure (SMILES): O=C1CC2(CCCC2)CC(=O)N1CCCCN(c1ccncc1)n1c2ccccc2c2ccccc21 [8-[4-(9H-carbazol-9-yl-4-pyridinylamino)butyl]-8-azaspiro[4.5]decane-7,9-dione]
- % of animals with scopolamine induced memory deficit reversal ([1]; dose 5.0 mg/kg body weight): 60%

Structure (SMILES): CNC1=Nc2ccc(Cl)cc2C(c2ccccc2)=[N+]([O-])C1 [Chlordiazepoxide, reference compound]
- ED50 [5]: 8 mg/kg

Structure (SMILES): CNCCCN1c2ccccc2CCc2ccccc21 [Desipramine, reference compound]
- ED50 [4]: 2.3 mg/kg

Structure (SMILES): C=CCN(c1ccncc1)n1c2ccccc2c2ccccc21.O=C(O)/C=C\C(=O)O [N-(2-Propenyl)-N-(4-pyridinyl)-9H-carbazol-9-amine maleate]
- ED50 ([2]; mice, s.c.): 1 mg/kg
- ED50 [3, 6]: 1.2 mg/kg
- ED50 ([4]; mice, p.o., TBZ 60 mg/kg i.p.): 3.7 mg/kg

Structure (SMILES): Cl.Fc1cnccc1Nn1c2ccccc2c2ccccc21 [N-(3-Fluoro-4-pyridinyl)-9H-carbazol-9-amine hydrochloride]
- ED50 ([2]; mice, s.c.): 1.3 mg/kg
- ED50 [3, 6]: 0.7 mg/kg

Structure (SMILES): CCCN(c1ccncc1F)n1c2ccccc2c2ccccc21 [N-(3-Fluoro-4-pyridinyl)-N-propyl-9H-carbazol-9-amine]
- % of animals with scopolamine induced memory deficit reversal ([1]; dose 1.25 mg/kg body weight): 27%

Structure (SMILES): O=C(O)/C=C\C(=O)O.c1ccc2c(c1)c1ccccc1n2Nc1ccncc1 [N-(4-Pyridinyl)-9H-carbazol-9-amine maleate]
- ED50 ([2]; mice, s.c.): 0.5 mg/kg
- ED50 [3, 6]: 0.4 mg/kg
- ED50 [5]: 23.4 mg/kg
- ED50 ([4]; mice, p.o., TBZ 60 mg/kg i.p.): 2.3 mg/kg

Structure (SMILES): CCCCN(c1ccncc1)n1c2ccccc2c2ccccc21.Cl [N-(Butyl)-N-(4-pyridinyl)-9H-carbazol-9-amine hydrochloride]
- % of animals with scopolamine induced memory deficit reversal ([1]; dose 0.63 mg/kg body weight): 33%
- ED50 ([4]; mice, p.o., TBZ 60 mg/kg i.p.): 5.2 mg/kg

Structure (SMILES): CCCN(c1ccncc1)n1c2ccccc2c2ccccc21.O=C(O)/C=C\C(=O)O [N-(Propyl)-N-(4-pyridinyl)-9H-carbazol-9-amine maleate]
- % of animals with scopolamine induced memory deficit reversal ([1]; dose 2.5 mg/kg body weight): 33%
- ED50 ([2]; mice, s.c.): 4.3 mg/kg
- ED50 [3, 6]: 9.8 mg/kg
- ED50 [5]: 16.9 mg/kg
- ED50 ([4]; mice, p.o., TBZ 60 mg/kg i.p.): 1.5 mg/kg

Structure (SMILES): CCN(c1ccncc1)n1c2ccccc2c2ccccc21.O=C(O)/C=C\C(=O)O [N-Ethyl-N-(4-pyridinyl)-9H-carbazol-9-amine maleate]
- ED50 ([2]; mice, s.c.): 1.1 mg/kg
- ED50 [3, 6]: 4.3 mg/kg
- ED50 [5]: 6.4 mg/kg
- ED50 ([4]; mice, p.o., TBZ 60 mg/kg i.p.): 2.2 mg/kg

Structure (SMILES): CN(c1ccncc1)n1c2ccccc2c2ccccc21.O=C(O)/C=C\C(=O)O [N-Methyl-N-(4-pyridinyl)-9H-carbazol-9-amine maleate]
- ED50 ([2]; mice, s.c.): 0.1 mg/kg
- ED50 [3, 6]: 0.19 mg/kg
- ED50 ([4]; mice, p.o., TBZ 60 mg/kg i.p.): 1.5 mg/kg

Structure (SMILES): CC(C)=CCN1CCC2(C)c3cc(O)ccc3CC1C2C (stereo not shown) [Pentazocin, reference compound]
- ED50 [2]: 1.3 mg/kg
- ED50 [3]: 3.9 mg/kg

Structure (SMILES): CNC(=O)Oc1ccc2c(c1)[C@]1(C)CCN(C)[C@@H]1N2C [Physostigmine, reference compound]
- % of animals with scopolamine induced memory deficit reversal ([1]; dose 0.31 mg/kg body weight): 20%
